For experiment [1], the target named is T1, angiotensin-converting enzyme (ACE) isolated from pig's renal cortex (Sus scrofa, UniProt F1RRW5).
T1 construct: isolated from pig's renal cortex; from tissue; host or cells: pig renal cortex
T1 sequence (F1RRW5 34-1309): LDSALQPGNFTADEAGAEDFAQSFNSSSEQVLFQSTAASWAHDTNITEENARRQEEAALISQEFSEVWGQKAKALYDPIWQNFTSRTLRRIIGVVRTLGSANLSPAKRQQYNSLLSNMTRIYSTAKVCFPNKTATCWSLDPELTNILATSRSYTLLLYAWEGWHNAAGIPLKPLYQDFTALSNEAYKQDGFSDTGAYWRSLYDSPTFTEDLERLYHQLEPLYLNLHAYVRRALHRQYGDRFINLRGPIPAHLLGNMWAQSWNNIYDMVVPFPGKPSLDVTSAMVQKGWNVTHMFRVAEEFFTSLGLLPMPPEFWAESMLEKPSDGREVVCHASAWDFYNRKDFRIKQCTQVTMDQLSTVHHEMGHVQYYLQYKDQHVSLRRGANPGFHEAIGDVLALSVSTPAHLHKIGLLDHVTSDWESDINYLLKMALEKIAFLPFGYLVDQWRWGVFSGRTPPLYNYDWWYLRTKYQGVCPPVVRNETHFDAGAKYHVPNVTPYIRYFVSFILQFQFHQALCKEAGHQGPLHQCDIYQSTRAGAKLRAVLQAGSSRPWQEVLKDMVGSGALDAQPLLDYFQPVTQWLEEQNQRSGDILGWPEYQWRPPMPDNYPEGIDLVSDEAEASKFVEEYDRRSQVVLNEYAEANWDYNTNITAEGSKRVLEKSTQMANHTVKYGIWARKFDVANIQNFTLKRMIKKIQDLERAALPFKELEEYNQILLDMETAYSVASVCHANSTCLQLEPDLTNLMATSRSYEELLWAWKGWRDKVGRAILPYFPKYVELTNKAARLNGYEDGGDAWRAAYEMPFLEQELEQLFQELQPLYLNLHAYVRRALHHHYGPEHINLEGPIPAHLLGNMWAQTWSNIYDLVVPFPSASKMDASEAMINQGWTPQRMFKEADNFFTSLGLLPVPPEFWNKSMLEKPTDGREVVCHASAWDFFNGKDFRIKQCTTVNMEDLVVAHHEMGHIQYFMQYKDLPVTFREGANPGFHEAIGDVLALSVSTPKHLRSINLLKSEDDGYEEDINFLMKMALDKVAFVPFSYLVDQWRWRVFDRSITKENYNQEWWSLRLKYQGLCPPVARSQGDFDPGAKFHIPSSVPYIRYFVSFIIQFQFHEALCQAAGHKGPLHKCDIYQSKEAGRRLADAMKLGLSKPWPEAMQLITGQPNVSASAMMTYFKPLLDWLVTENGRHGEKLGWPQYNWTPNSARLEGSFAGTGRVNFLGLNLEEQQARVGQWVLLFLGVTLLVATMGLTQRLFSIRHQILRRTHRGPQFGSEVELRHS
Briefly: ACE-inhibitory activity in vitro (histidyl-leucine released from hippuryl-histidyl-leucine). It is filed as biochemical. As to the method: ACE-inhibitory activity in vitro:
50 μl of a solution containing 0.01 mole/liter of hippuryl-histidyl-leucine (substrate) and 0-100 μl of a test compound solution were added to 300 μl of a 0.2M trishydrochloric acid buffer solution containing 0.2 mole/liter of sodium chloride. The total volume of said mixture was adjusted to 450 μl with water. Then, 50 μl of angiotensin -converting enzyme (ACE) isolated from pig's renal cortex were added to the mixture, and the mixture was allowed to stand at 37° C. for 20 minutes. The amount of histidyl-leucine produced from the substrate by the action of ACE was assayed microbiologically by the use of Leuconostoc mesenteroides P-60, and the ACE-inhibitory activity of the test compound was estimated therefrom.
*I50 = a dose required to induce 50% inhibition of the ACE activity

The subject of experiment [2] is spontaneously hypertensive rats (SHR). Nature of the experiment: Hypotensive activity in SHR (systolic blood pressure, tail plethysmographic technique). It is filed as in vivo, rat. As to conditions: 50 mg/kg orally; for Decrease in blood pressure (-Δ mm Hg): SHR fasted overnight, systolic; for Duration of action: hypotensive action, SHR. On the procedure: Hypotensive activity in SHR:
A test compound (dose: 50 mg/kg) suspended in an aqueous carboxymethylcellulose solution was administered orally to spontaneously hypertensive rats (SHR) fasted overnight. The systolic blood pressure of the rats was measured by the tail plethysmographic technique (The Journal of Laboratory and Clinical Medicine 78(1971), page 957). The hypotensive activity of the test compound was estimated from the decreased level of blood pressure.

Experiment [3] has as its system angiotensin-converting enzyme (ACE). Briefly: ACE-inhibitory activity in vivo (pressor response to angiotensin I in anesthetized normotensive rats). The following applies: 0.1 mg/kg i.v.; for Duration of activity: ACE inhibition in vivo; for ACE-inhibitory activity in vivo: percentage inhibition of ACE activity, angiotensin I 300 ng/kg i.v. Details: species or system rat. On the procedure: ACE-inhibitory activity in vivo:
Normotensive rats weighing 300-400 g were anesthetized with urethane (1.5 g/kg, s.c.), and angiotensin I (300 ng/kg) was injected into the femoral vein of the rats. The pressor response to angiotensin I was measured with a pressure transducer connected to the carotid artery. Then, a test compound was injected intravenously thereto at a dose of 0.1 mg/kg, and angiotensin I (300 ng/kg) was further injected intravenously at intervals. The ACE-inhibitory activity of the test compound was estimated from the pressur responses to angiotensin I which were obtained before and after intravenous injection of the test compound.
*percentage inhibition of ACE activity in vivo

The mark [4] stands for this setting: dose required to induce 50% inhibition of the ACE activity, pig renal cortex ACE, 37° C., 20 minutes, read-out: ACE-inhibitory activity in vitro I50.

Values joined by “and” are separate entries in the source; they are usually repeats but may differ in a detail not shown here. Equal values may be shown once. Where a name gives a salt, the structure may show the parent alone. Read-outs that look alike come from different tables or passages of the source.

Regarding `C=CCN(CCC(=O)O)C(=O)N1Cc2ccccc2C[C@H]1C(=O)O` [3(S)-2-[N-allyl-N-(2-carboxyethyl)carbamoyl]-1,2,3,4-tetrahydroisoquinoline-3-carboxylic acid di-L-lysine salt], the IC50 in experiment [1] (setting [4]) was determined as 140 nM.
Same read-out and setting: next, `O=C(O)CCN(C(=O)N1Cc2ccccc2C[C@H]1C(=O)O)C1CC1` [3(S)-2-[N-cyclopropyl-N-(2-carboxyethyl)-carbamoyl]-1,2,3,4-tetrahydroisoquinoline-3-carboxylic acid di-dicyclohexylamine salt]: 140 nM.
In the case of `CCN(CCC(=O)O)C(=O)N1Cc2ccccc2C[C@H]1C(=O)O` [3(S)-2-[N-ethyl-N-2-carboxyethyl)carbamoyl]-1,2,3,4-tetrahydroisoquinoline-3-carboxylic acid di-sodium salt], the IC50 in experiment [1] (setting [4]) came out at 21 nM.
In the case of `CCN(CCC(=O)O)C(=O)N1Cc2ccccc2C[C@H]1C(=O)O` [3(S)-2-[N-ethyl-N-(2-carboxyethyl)carbamoyl]-1,2,3,4-tetrahydroisoquinoline-3-carboxylic acid calcium salt], the IC50 in experiment [1] (setting [4]) is 11 nM; in experiment [1] (in vitro, ACE isolated from pig's kidney, read-out: 50% inhibition of the activity of the enzyme at a concentration of) it was approximately 11 nM.
`CCOC(=O)CCN(CC)C(=O)N1Cc2ccccc2C[C@H]1C(=O)O` [3(S)-2-[N-ethyl-N-(2-ethoxycarbonylethyl)carbamoyl]-1,2,3,4-tetrahydroisoquinoline-3-carboxylic acid 1/2 calcium salt]: in experiment [2], the “Decrease in blood pressure (-Δ mm Hg)” value was determined as 26 mm Hg and the Duration of action was more than 6 h.
Turning to `CCOC(=O)CCN(CC)C(=O)N1Cc2ccccc2C[C@H]1C(=O)O` [3(S)-2-[N-ethyl-N-(2-ethoxycarbonylethyl)carbamoyl]-1,2,3,4-tetrahydroisoquinoline-3-carboxylic acid L-lysine salt], in experiment [3], the Duration of activity is more than 60 min and the “ACE-inhibitory activity in vivo” value is more than 60%.
In experiment [3], `CCCCOC(=O)CCN(CC)C(=O)N1Cc2ccccc2C[C@H]1C(=O)O` [3(S)-2-[N-ethyl-N-(2-n-butoxycarbonylethyl)carbamoyl]-1,2,3,4-tetrahydroisoquinoline-3-carboxylic acid L-lysine salt] came in with a Duration of activity of more than 60 min. In addition, in experiment [3] (0.1 mg/kg), the “ACE-inhibitory activity in vivo” value was 80% and > 60%.
As for `CCOC(=O)CCN(CC)C(=O)N1Cc2ccccc2C[C@H]1C(=O)O.NCCCC[C@H](N)C(=O)O` [3(S)-2-[N-ethyl-N-(2-n-ethoxycarbonylethyl)carbamoyl]-1,2,3,4-tetrahydroisoquinoline-3-carboxyleic acid L-lysine salt], in experiment [2], the “Decrease in blood pressure (-Δ mm Hg)” value is given as 25 mm Hg and the Duration of action was more than 6 h.
With `CC(C)N(CCC(=O)O)C(=O)N1Cc2ccccc2C[C@H]1C(=O)O` [3(S)-2-[N-isopropyl-N-(2-carboxyethyl)carbamonyl]-1,2,3,4-tetrahydroisoquinoline-3-carboxylic acid di-L-lysine salt], the IC50 in experiment [1] (setting [4]) came to 29 nM.
As for `CC(C)N(CCC(=O)O)C(=O)N1Cc2ccccc2C[C@H]1C(=O)O` [3(S)-2-[N-isopropyl-N-(2-carboxyethyl)carbamoyl]-1,2,3,4-tetrahydroisoquinoline-3-carboxylic acid di-dicyclohexylamine salt], in experiment [3], the Duration of activity was more than 60 min and the “ACE-inhibitory activity in vivo” value is given as more than 60%.
On the same counts, the results for `CCOC(=O)CCN(C(=O)N1Cc2ccccc2C[C@H]1C(=O)O)C(C)C` [3(S)-2-[N-isopropyl-N-(2-ethoxycarbonylethyl)carbamoyl]-1,2,3,4-tetrahydroisoquinoline-3-carboxylic acid L-lysine salt] are more than 60 min and more than 60%.
For `COC(=O)CCN(C(=O)N1Cc2ccccc2C[C@H]1C(=O)O)C(C)C` [3(S)-2-[N-isopropyl-N-(2-methoxycarbonylethyl)carbamoyl]-1,2,3,4-tetrahydroisoquinoline-3-carboxylic acid L-lysine salt], in experiment [2], the “Decrease in blood pressure (-Δ mm Hg)” value was found to be 36 mm Hg and the Duration of action is more than 6 h. Further, in experiment [3] (0.1 mg/kg), the Duration of activity fell in the range of 30 to 60 min. In experiment [3], the “ACE-inhibitory activity in vivo” value was 40 - 60%.
In the case of `COC(=O)CCN(C(=O)N1Cc2ccccc2C[C@H]1C(=O)O)C(C)C` [3(S)-2-[N-isopropyl-N-(2-methoxycarbonylethyl)carbamoyl]-1,2,3,4-tetrahydroisoquinoline-3-carboxylic acid sodium salt], the Duration of activity in experiment [3] (sodium salt, 0.1 mg/kg) was more than 60 min.
In the case of `CCCCOC(=O)CCN(C(=O)N1Cc2ccccc2C[C@H]1C(=O)O)C(C)C` [3(S)-2-[N-isopropyl-N-(2-n-butoxycarbonylethyl)carbamoyl]-1,2,3,4-tetrahydroisoquinoline-3-carboxylic acid L-lysine salt], in experiment [3], the Duration of activity was more than 60 min and the “ACE-inhibitory activity in vivo” value is more than 60%.
For `CN(CCC(=O)O)C(=O)N1Cc2ccccc2C[C@H]1C(=O)O` [3(S)-2-[N-methyl-N-(2-carboxyethyl)carbamoyl]-1,2,3,4-tetrahydroisoquinoline-3-carboxylic acid 2 dicyclohexylamine salt], the IC50 in experiment [1] (setting [4]) was found to be 610 nM.
In the case of `CCOC(=O)CCN(C)C(=O)N1Cc2ccccc2C[C@H]1C(=O)O` [3(S)-2-[N-methyl-N-(2-ethoxycarbonylethyl)carbamoyl]-1,2,3,4-tetrahydroisoquinoline-3-carboxylic acid L-lysine salt], in experiment [3], the Duration of activity is more than 60 min and the “ACE-inhibitory activity in vivo” value is reported as 40 - 60%.
With `CCCN(CCC(=O)O)C(=O)N1Cc2ccccc2C[C@H]1C(=O)O` [3(S)-2-[N-n-propyl-N-(2-carboxyethyl)carbamoyl]-1,2,3,4-tetrahydroisoquinoline-3-carboxylic acid 2 dicyclohexylamine salt], the IC50 in experiment [1] (setting [4]) is 550 nM.
As to `C#CCN(CCC(=O)O)C(=O)N1Cc2ccccc2C[C@H]1C(=O)O` [3(S)-2-[N-propargyl-N -(2-carboxyethyl)carbamoyl]-1,2,3,4-tetrahydroisoquinoline-3-carboxylic acid di-L-lysine salt], the IC50 in experiment [1] (setting [4]) came out at 35 nM.

Values taken from US4294832A, “Tetrahydroisoquinoline compounds and a pharmaceutical composition thereof” (Tanabe Seiyaku Co., Ltd., priority 1979, dated 1981).
